Experimental data: patent US9387220B2, “Method for inducing hepatocyte proliferation and uses thereof” (CAN-FITE BIOPHARMA LTD., priority 2007, dated 2016)
pIC50, pKi: −log10 of the molar value. Read-outs that look alike come from different tables or passages of the source.

What was measured:
[1] = oral administration; cited from earlier work
[2] = mice; cited from earlier work
A2B adenosine receptor = target: T1, A2B adenosine receptor (Homo sapiens, UniProt P29275); test: Binding affinity to adenosine A2B receptor
T1 sequence (P29275 1-332): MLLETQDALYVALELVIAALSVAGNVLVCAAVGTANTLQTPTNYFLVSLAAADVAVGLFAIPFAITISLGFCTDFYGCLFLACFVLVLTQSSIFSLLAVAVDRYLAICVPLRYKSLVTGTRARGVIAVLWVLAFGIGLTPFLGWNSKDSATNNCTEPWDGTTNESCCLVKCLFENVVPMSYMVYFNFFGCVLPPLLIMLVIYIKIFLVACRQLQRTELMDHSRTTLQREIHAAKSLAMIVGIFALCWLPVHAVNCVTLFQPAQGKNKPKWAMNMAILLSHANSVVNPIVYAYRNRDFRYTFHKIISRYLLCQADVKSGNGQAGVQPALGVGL

hepatocytes [3] = test: PCNA staining of hepatocytes after partial hepatectomy; type: in vivo, rat; conditions: rats, 48 hours after partial hepatectomy; FIG. 5B
hepatocytes [4] = test: Hepatocyte proliferation of regenerated liver after partial hepatectomy; type: in vivo, rat; conditions: rats, 70% hepatectomy, 100 μg/kg orally TID; control group 30%; FIG. 1
liver [5] = test: Liver regeneration (liver weight) after partial hepatectomy; type: in vivo, rat; conditions: rats, 24 and 48 hours after partial hepatectomy; FIG. 6
Description: Male Wistar rats (275-300 g) were fasted 12 h before the procedure. The rats were anaesthetized with Ketamin (45 mg/kg) and Xylazine (5 mg/kg). Laparatomy was performed via a sub costal, bilateral incision. The main portal pedicle to the total liver was clamped for a period of 10 minutes, during which, a 70% hepatectomy was performed. After 10 minutes of ischemia (in the course of the hepatectomy), blood flow was restored by de-clamping.
Rats underwent laparatomy and the main portal pedicle to the total liver was clamped for a period of 10 minutes, during which a 70% hepatectomy was performed. After 10 minutes of ischemia blood flow was restored by de-clamping.
Livers were collected 24 and 48 hours after the partial […]. The growth of residual liver lobes was assessed using the following equation: […]
A is the estimated total liver weight before hepatectomy (3.4% of a rat's total weight),
B is the weight of liver resected during the hepatectomy, and
C is the weight of the regenerated liver at the end of the study.

[6] = Human studies with orally-administered Cl-IB-MECA, plasma half life; type: in vivo; conditions: oral administration, read-out: half life in human plasma from peak concentration
Excerpt: An effective amount of an active agent may also be determined based on human PK studies. […] On the basis of said human trials twice daily administration appears to be a preferred administration regiment. […] On the basis of this human data, the administration regiment in human subjects may preferably be once or twice daily although other regiments cannot be excluded.

liver [7] = test: Serum levels of liver enzymes ALT and AST after partial hepatectomy with ischemia/reperfusion; type: in vivo, rat

Structure (SMILES)	half life in human plasma from peak concentration [1] [h]	half life [2] [h]	pIC50 (A2B adenosine receptor; read-out: IC50)	pKi (A2B adenosine receptor; read-out: Ki)	number of PCNA positive hepatocytes vs vehicle (hepatocytes [3])	level of regeneration (hepatocyte proliferation) (hepatocytes [4]) [%]	liver weight (% of regeneration) vs vehicle (liver [5])	IC50 (A2B adenosine receptor)	Ki (A2B adenosine receptor)	half-life [6] [h]	ALT serum level vs control group (liver [7]; rats, 2, 4 and 48 hours after partial hepatectomy, 100 μg/kg orally TID, FIG. 2A)	AST serum level vs control group (liver [7]; rats, 2, 4 and 48 hours after partial hepatectomy, 100 μg/kg orally TID, FIG. 2B)	serum levels of liver enzymes (AST and ALT) vs vehicle and untreated rats (liver [7]; rats, partial hepatectomy, further assay, FIG. 3)
CNC(=O)[C@H]1O[C@@H](n2cnc3c(NCc4cccc(I)c4)ncnc32)[C@H](O)[C@@H]1O [IB-MECA, 1-deoxy-1-{6-[({3-iodophenyl}methyl)amino]-9H-purine-9-yl}-N-methyl-β-D-ribofuranuronamide]	8 to 10	1.5	4.32	4.37	–	–	–	–	–	–	–	–	–
CNC(=O)[C@H]1O[C@@H](n2cnc3c(NCc4cccc(I)c4)nc(Cl)nc32)[C@H](O)[C@@H]1O [Cl-IB-MECA, 2-chloro-N^6-(3-iodobenzyl)-adenosine-5′-N-methyl-uronamide]	–	–	–	–	significantly increased	45.1	increase	No activity	No activity	12 to 14	significantly decreased	significantly decreased	reduction
